In PMC10060569 (Frontiers in Pharmacology, 2023):

Biological target: T1, 20KVIV23/26N-hP2X1R (Homo sapiens, UniProt P51575, L23V/M21V/R20K/V22I)
T1 construct: expressed in transfected cells; host or cells: Xenopus laevis oocytes (cRNA injection)
T1 sequence (P51575 1-399 R20K/M21V/V22I/L23V): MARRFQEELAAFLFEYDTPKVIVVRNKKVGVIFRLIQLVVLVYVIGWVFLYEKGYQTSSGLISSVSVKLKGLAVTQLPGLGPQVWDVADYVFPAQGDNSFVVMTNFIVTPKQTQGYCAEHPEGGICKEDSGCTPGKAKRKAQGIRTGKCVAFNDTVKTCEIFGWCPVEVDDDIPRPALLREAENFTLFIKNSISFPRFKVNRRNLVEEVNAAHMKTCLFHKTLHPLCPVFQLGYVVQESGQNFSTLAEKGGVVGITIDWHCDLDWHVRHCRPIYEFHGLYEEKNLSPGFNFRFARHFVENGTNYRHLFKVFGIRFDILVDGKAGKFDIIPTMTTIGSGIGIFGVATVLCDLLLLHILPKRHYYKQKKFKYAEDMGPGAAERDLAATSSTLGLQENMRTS
Assay: TEVC of ATP-induced currents, hP2X1R mutant in X. laevis oocytes (peak current protocol)
Assay type: cell-based
Text: Oocyte expression plasmids encoding the wild-type (wt) and N-terminally His-tagged (His-) fusion constructs of the hP2X2R, hP2X3R, hP2X4R, and hP2X7R, and the mutant His-^20RMVL^23KVIV^23S^26N-hP2X1R, S^15V-rP2X3R, and His-S^15V-hP2X3R were the same as used in previous research ([Hausmann et al., 2006]; [Wolf et al., 2011]; [Hausmann et al., 2014]; [Obrecht et al., 2019]). In most cases, the N-terminal His-tagged variants of P2XRs were used here and in the previous studies to allow biochemical analyses on affinity-purified proteins using the same constructs. Although this was not required for the present study, it allows for better comparability with our previous studies. Capped cRNAs of different P2XRs were already available in the research group or were synthesized as previously described ([Schmalzing et al., 1991]; [Stolz et al., 2015]). cRNA was injected into collagenase-defolliculated X. laevis oocytes in aliquots of 41 nl or 23 nl (see Supplementary Table S1 for the amount of cRNA used for expression of the indicated P2XR) using a Nanoliter 2000 injector (World Precision Instruments, Sarasota, United States of America) as described previously ([Hausmann et al., 2014]; [Stolz et al., 2015]; [Obrecht et al., 2019]). To express the heteromeric hP2X2/3 receptor, cRNAs encoding His-hP2X2R and wt-hP2X3R were coinjected at a ratio (w/w) of 1:6. Oocytes were stored at 19°C in an oocyte ringer solution (ORi^+) containing 90 mM NaCl, 1 mM KCl, 1 mM CaCl2, 1 mM MgCl2, and 10 mM HEPES (Carl Roth, Karlsruhe, Germany) adjusted to pH 7.4 with NaOH and supplemented with 50 μg/ml gentamicin (AppliChem, Darmstadt, Germany). […]
Ion currents mediated by P2X receptors were evoked by the indicated concentration of ATP or α,β-meATP and were recorded 1 or 2 days after cRNA injection at ambient temperature at a holding potential of −60 mV by two-electrode voltage clamp (TEVC) as previously described ([Hausmann et al., 2006]). […]

SMILES: O=C(O)Cc1ccccc1Nc1c(Cl)cccc1Cl [Diclofenac, diclofenac]
- reversibility of the inhibitory effect: reversible
- IC50 (1 µM ATP, peak current protocol, X. laevis oocytes): 338 µM
- inhibition at 1000 µM (read-out: Max. inhibition at 1 mM): 86.2%
